Here are results for 2 compounds from ChEMBL document CHEMBL3832023, “DailyMed|setid=c8b93fc1-472c-4890-8d02-2ee4f7175c22 | BUTALBITAL, ASPIRIN, CAFFEINE AND CODEINE PHOSPHATE- butalbital, aspirin,caffeine and codeine phosphate capsule|Jerome Stevens Pharmaceuticals”.

A short description of data set [1]: (§1) Pharmacokinetic parameters for aspirin and salicylic acid following oral administration of Aspirin,butalbital,caffeine phosphate capsules. As to conditions: human, in vivo, dosed compound id 37, dosed compound name ASPIRIN, tissue Plasma; for half-life: dose 650 mg, route oral. The format is ADME, organism-based. Details: dose 650 mg, route oral.
Another data set concerns Homo sapiens. The description is as §1. The class given is ADME, organism-based. Details: dose 650 mg, route oral. As to conditions: in vivo, po, dose 650 mg, dosed compound id 37, dosed compound name ASPIRIN, tissue Plasma.

For orientation: Cmax means the highest concentration seen after dosing. Broadly, the half-life is the time needed for the level to fall by half in the phase considered. Low readings indicate rapid decline, high ones slow decline. As usually defined, the Tmax is the time at which the peak concentration occurs. `CC(=O)Oc1ccccc1C(=O)O` [ASPIRIN] had a Cmax in data set [1] (po, 650 mg) of 8800 ng/mL. Moreover, the half-life in data set [1] stood at 12 min. For the same compound, the Tmax in the data set on Homo sapiens was 40 min.
`O=C(O)c1ccccc1O` [SALICYLIC ACID] gave a half-life in data set [1] of 180 min.
